US20240325548A1, “DYNAMIC BIOACTIVE SCAFFOLDS AND THERAPEUTIC USES THEREOF AFTER CNS INJURY” (Northwestern University, priority 2021, published 2024)

Legend:
[1] = system: hNPCs; assay: Neuronal differentiation of hNPCs treated with IKVAV PAs (TUJ-1+ cells); type: cell-based, human
Excerpt: (§1) Neural progenitor cells (NPCs) were differentiated from human embryonic stem cells HUES 64 (Harvard University) (see FIG. 2C). In short, 70% confluent stem cell cultures grown in Matrigel (Thermo Fisher) coated plates with mTESR medium (STEMCELL Technologies), were switched to N2B27 medium (50% DMEM: F12, 50% Neurobasal, supplemented with NEAA, Glutamax, N2 and B27; Gibco) containing dual SMAD inhibitors (SB431542, DNSK International and LDN-193189, Tocris) for 12 days to induce the generation of neural progenitors. Neuralization was enhanced by supplementing medium with laminin from day 5 to 12. Next, neural rosettes were dissociated with neural rosette selection reagent (STEMCELL Technologies) to obtain NPCs, which are expanded in N2B27 (Gibco) medium supplemented with bFGF (Millipore). For experimentation in the different PA platforms, NPCs were dissociated with Accutase (Innovative Cell technology), and cultured in the distinct platforms with DMEM: F12+N2+B27 medium with hyclone penicillin-streptomycin (GE Healthcare) and ascorbic acid (0.2 μg/mL; Sigma-Aldrich).
(§2) For IKVAV PA treatments, hNPCs were cultured on ornithine coatings (German Glass, Chemglass Life Science) in 6 well and 24 well plates at a density of 500,000 cells/well and 80,000 cells/well respectively. hNPCs were treated with […] of IKVAV PAs ([PA]=6 mM, [KCl]=3 mM, [NaCl]=150 mM) or recombinant laminin protein (10 mg/mL) in solution. IKVAV PA2 and IKVAV PA5 were also mixed with 5 mM CaCl2) at a ratio PA:CaCl2) 6:1 to treat hNPCs. For 2D experiments, hNPCs were cultured on the different IKVAV PAs or laminin coatings in 6 well and 24 well plates at densities mentioned above. For co-assembled experiments, hNPCs were cultured on the different co-assembled PA coatings in 6 well and 24 well plates at a density of 400,000 cells/well and 50,000 cells/well respectively.
(§3) hNPCs were fed 4 times a week with DMEM: F12+N2^+B27 medium with hyclone penicillin-streptomycin and ascorbic acid. After 24 h, 72 h 1- or 2-weeks in vitro, cell lysates were harvested or fixed for WB or ICC, respectively. Three replicates per condition and at least three independent experiments were carried out for all conditions investigated.
(§4) For immunofluorescence, fixed primary cultures or free-floating tissue sections (40 m Thick) were incubated in blocking buffer containing 0.02% Triton-X (Sigma-Aldrich), 1% NHS (Gibco) and PBS 1× (Gibco). Samples were incubated with primary antibodies over night at 4° C. Alexa-488, Alexa-555 and/or Alexa-647 (1:500, Thermofisher) were used as secondary antibodies. DAPI (1:500, Thermofisher) was used to stain nuclei. Finally, the samples were mounted on coverslips with Immu-Mount (Fisher Scientific) solution for imaging.
For in vitro cell quantification, image files were imported into NIH Image J (1.51) software and the “analyze particles” and “cell counter” functions were used to measure the total number of cells in a determined area. Serial tissue sections were stained with NeuN and ChAT using free-floating immunostaining were quantified using Nikon Elements software. The rostral and caudal borders of the lesions were chosen as the first cross-sections that had NeuN staining in all four gray matter horns. 8 sections within the lesion were chosen per animal and expressed as number of neurons per section. Automated multichannel image acquisition, image stitching, and z-stack reconstruction ([…]) were carried out on a Nikon GasP R1 confocal microscope to image the entire selected cross-section for NeuN and Chat markers for all conditions.

[2] = T2-NMR spin-spin relaxation rate of PA assemblies; type: physicochemical; settings: for relaxation rate 1H-R2 of methylene protons on ε carbon of K residue in IKVAV: T2-NMR, IKVAV PA library
Method: NMR spectra were acquired at 600 MHz on a Tecmag NMR spectrometer using a Doty diffusion probe with a sweep width of 6 kHz and 16k data points or at 600 MHz on a Brucker Neo system with QCI-F cryoprobe.
NMR spectra for IKVAV PAs were recorded at 25° C. using TFA-d, H2O/D2O in 9/1 ratio (D2O contains 0.05 wt. % 3-(trimethylsilyl) propionic-2,2,3,3-d4 acid, sodium salt) as solvents. Chemical shifts are reported in part per million (ppm). Structural assignment was performed using ^1H,^1H-gCOSY, ^1H,^13C-gHSCQAD, TOCSY and NOESY. Multiplicities are quoted as singlet (s), doublet (d), multiplets (m), doublet of doublets (dd), doublet of doublet of doublets (ddd), triplet (t), quartet (q). The […] and typical spectra required 32 scans. Additional scans (512) were required for accurate estimation of the aromatic signal intensity since the epitope containing aromatic protons was present at only 10 mol %.
The spin-spin relaxation rates were measured using the Carr-Purcell-Gill-Meiboom pulse sequence with a delay time of 0.2 ms in a variable loop. The peak intensity data was fit to and exponential in the form:
where τ is the length of the delay time, R2 is the spin-spin relaxation rate and b are the baseline.

[3] = target: T1, β1-INTEGRIN (ITGB1) (Homo sapiens, UniProt P05556); assay: ITGB1 activation and intracellular signaling in hNPCs treated with IKVAV PAs (confocal microscopy, WB); type: cell-based; settings: for activation of ITGB1 and downstream pathway (ILK, p-FAK/FAK) with Ca2+ added: PA mixed with 5 mM CaCl2; for active ITGB1 and downstream effectors ILK and p-FAK: relative to other IKVAV PAs, IKVAV peptide, laminin or ornithine
T1 construct: endogenous in cells; host or cells: hNPCs differentiated from human embryonic stem cells HUES 64
Excerpt: as §1, §2, §3, §4
RIPA buffer (Thermofisher) with a cocktail of Halt Protease and Phosphatase Inhibitors (Thermofisher) was used to extract protein from in vitro and in vivo samples. For in vivo studies, spinal cord tissue was then sonicated using a horn sonicator (Branson) to break up the tissue. A Pierce™ BCA Protein Assay Kit (Thermofisher) was used to determine protein content for all samples used. Protein extracts obtained from cell cultures or tissue were separated using an SDS-polyacrylamide gel and electro-transferred to a nitrocellulose membrane (Bio-Rad). Membranes were blocked for 30 minutes to 1 hour using a 5% milk solution (Bio-Rad) and incubated over night with primary antibodies. Corresponding secondary HRP-conjugated antibodies (1:1000, ThermoFisher) were used for 1 h at room temperature. Radiance Bioluminescent ECL substrate (Azure Biosystems) was used to detect protein signal. The membranes were imaged using the Azure Biosystems imager and densitometry analysis were performed using ImageJ software.

[4] = T2 relaxation of K residue of IKVAV PAs, no Ca2+

T1 sequence (P05556 21-798): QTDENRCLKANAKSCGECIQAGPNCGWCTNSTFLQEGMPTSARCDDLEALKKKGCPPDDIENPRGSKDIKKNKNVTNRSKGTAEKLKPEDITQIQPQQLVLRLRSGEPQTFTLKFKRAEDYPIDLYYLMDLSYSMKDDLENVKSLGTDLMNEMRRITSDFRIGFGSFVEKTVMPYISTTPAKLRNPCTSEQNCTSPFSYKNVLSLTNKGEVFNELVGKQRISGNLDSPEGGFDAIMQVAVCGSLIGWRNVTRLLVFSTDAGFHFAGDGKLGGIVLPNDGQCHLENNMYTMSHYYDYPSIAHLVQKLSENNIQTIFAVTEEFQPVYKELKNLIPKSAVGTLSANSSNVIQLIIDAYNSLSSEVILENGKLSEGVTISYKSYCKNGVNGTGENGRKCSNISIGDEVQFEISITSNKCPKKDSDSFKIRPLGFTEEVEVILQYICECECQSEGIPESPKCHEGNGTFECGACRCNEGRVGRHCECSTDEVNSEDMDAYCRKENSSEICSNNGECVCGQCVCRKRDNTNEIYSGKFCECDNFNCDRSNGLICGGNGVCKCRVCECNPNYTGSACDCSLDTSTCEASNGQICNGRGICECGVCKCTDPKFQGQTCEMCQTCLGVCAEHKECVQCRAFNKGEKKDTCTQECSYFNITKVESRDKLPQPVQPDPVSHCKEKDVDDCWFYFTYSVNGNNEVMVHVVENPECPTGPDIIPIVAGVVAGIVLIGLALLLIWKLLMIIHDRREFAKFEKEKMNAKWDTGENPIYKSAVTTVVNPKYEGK

| Substance | percentage of induction of TUJ-1+ neuronal cells [1] [%] | relaxation rate 1H-R2 of methylene protons on ε carbon of K residue in IKVAV [2] [s⁻¹] | R2 [2, 4] [s⁻¹] | activation of ITGB1 and downstream pathway (ILK, p-FAK/FAK) with Ca2+ added [3] | active ITGB1 and downstream effectors ILK and p-FAK [3] | in vitro bioactivity (summary) [3] | R2 ([2]; T2 relaxation of K residue, +Ca2+) [s⁻¹] |
| --- | --- | --- | --- | --- | --- | --- | --- |
| C16-G4E4GIKVAV [IKVAV PA5] | 20.7±1.2 | 2.6 ± 0.003 | 2.6 ± 0.03 | decreased | substantially higher | – | – |
| C16-VAG2E4GIKVAV [IKVAV PA4] | 14±1.2 | – | 5.6 ± 0.4 | – | intermediate level of activation | low level of in vitro bioactivity | – |
| C16-A2G2E4GIKVAV [IKVAV PA2] | 20.5±1 | 2.7 ± 0.1 | 2.7 ± 0.1 | decreased | substantially higher | – | 8.6 ± 0.5 |
| C16-V2A2E4GIKVAV [IKVAV PA1] | 8.2±0.7 | – | 11.2 ± 2.9 | – | – | low level of in vitro bioactivity | – |
